Consider 1 compound from patent US20100063127A1, “Antioxidant Properties of Tryptophan from Human Milk” (priority 2008, published 2010).

The test system of this assay is TNFα. In words: Effect on TNFα expression, cell based immunoassay in RAW 264.7 cells. More on the design: species or system mouse. As to the method: This was carried out using a cell based immunoassay using mouse monocyte/macrophage cells (RAW 264.7; ATCC American Tissue Culture Collection). The experiment was done in triplicates. The data were analyzed by t-test. […] Based on this tryptophan is an ant-inflammatory amino acid.

On to `N[C@@H](Cc1c[nH]c2ccccc12)C(=O)O` [Tryptophan], for which the TNFα (Tryptophan 50 μg/ml, control Medium + LPS 1 μg/ml 6156, triplicates) worked out at 4869 pg/mL. For the same compound, the “TNFα, treated value versus control value (t-test)” value (p<0.05) is “significant difference”.
